± gives the standard deviation of the averaged measurements.
How the values were obtained:
[1] = compound: CS(=O)(=O)CCNCc1ccc(-c2ccc3ncnc(Nc4ccc(OCc5cccc(F)c5)c(Cl)c4)c3c2)o1 [LAPATINIB]; test: surviving fraction relative to DMSO-only wells; higher = less growth inhibition; details: exposure time: 5 days
How it was run: (§1)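 After seeding at 250–500 cells per well in 384-well plates and a 24-hour wait, log-phase tumour cell lines were exposed without interruption for five days to inhibitors at 0.5, 1, 5, 10, 50, 100, 500 and 1000 nM. CellTiter-Glo luminescence was recorded after 10 minutes at room temperature. Viability is reported as surviving fraction, the luminescence normalised to the median of DMSO-only wells.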

[2] = compound: Nc1ncn([C@H]2C[C@H](O)[C@@H](CO)O2)c(=O)n1 [DECITABINE]; test: as above; details: exposure time: 5 days
How it was run: as §1

Row | Test System | surviving fraction ([1]; 0.5 nM) | surviving fraction ([1]; 1 nM) | surviving fraction ([1]; 5 nM) | surviving fraction ([1]; 10 nM) | surviving fraction ([1]; 50 nM) | surviving fraction ([1]; 100 nM) | surviving fraction ([1]; 500 nM) | surviving fraction ([1]; 1000 nM) | surviving fraction ([2]; 0.5 nM) | surviving fraction ([2]; 1 nM) | surviving fraction ([2]; 5 nM) | surviving fraction ([2]; 10 nM) | surviving fraction ([2]; 50 nM) | surviving fraction ([2]; 100 nM) | surviving fraction ([2]; 500 nM) | surviving fraction ([2]; 1000 nM)
1 | 22RV1 PROSTATE | 1.01 ± 0.05 | 1.1 ± 0.096 | 0.954 ± 0.076 | 1.01 ± 0.1 | 1.04 ± 0.034 | 1.07 ± 0.085 | 1.08 ± 0.12 | 1.11 ± 0.059 | 1.01 ± 0.024 | 0.935 ± 0.23 | 0.964 ± 0.19 | 0.897 ± 0.19 | 0.881 ± 0.27 | 0.801 ± 0.16 | 0.614 ± 0.17 | 0.509 ± 0.15
2 | 93VU HEADNECK | 1.04 ± 0.13 | 1.09 ± 0.11 | 1.07 ± 0.018 | 1.12 ± 0.069 | 0.806 ± 0.021 | 0.827 ± 0.045 | 0.493 ± 0.039 | 0.438 ± 0.041 | 1.12 ± 0.086 | 1.09 ± 0.1 | 1.14 ± 0.12 | 1 ± 0.015 | 0.931 ± 0.035 | 0.933 ± 0.017 | 0.747 ± 0.03 | 0.657 ± 0.007
3 | 143B BONE | 0.986 ± 0.065 | 1.07 ± 0.057 | 0.931 ± 0.14 | 0.967 ± 0.11 | 1.01 ± 0.013 | 1.08 ± 0.11 | 1.02 ± 0.016 | 1.01 ± 0.021 | 1.09 ± 0.088 | 1.08 ± 0.09 | 1.09 ± 0.067 | 1.1 ± 0.069 | 1.13 ± 0.11 | 1.11 ± 0.076 | 0.992 ± 0.11 | 0.956 ± 0.031
4 | A549 LUNG | 1.038 ± 0.0095 | 1.14 ± 0.044 | 1.06 ± 0.02 | 1.07 ± 0.016 | 1.02 ± 0.043 | 1.06 ± 0.05 | 1 ± 0.041 | 1.02 ± 0.036 | 1.05 ± 0.027 | 1.031 ± 0.0066 | 1.03 ± 0.017 | 0.992 ± 0.016 | 1.03 ± 0.017 | 1.03 ± 0.03 | 1.02 ± 0.036 | 0.908 ± 0.031
5 | ASKA SYNOVIAL | 1.17 ± 0.046 | 1.1 ± 0.012 | 1.13 ± 0.045 | 1.16 ± 0.053 | 1.21 ± 0.092 | 1.19 ± 0.069 | 1.16 ± 0.1 | 1.15 ± 0.068 | 1.04 ± 0.07 | 1.01 ± 0.085 | 1.04 ± 0.026 | 1.03 ± 0.043 | 1.03 ± 0.067 | 0.952 ± 0.079 | 0.711 ± 0.075 | 0.6847 ± 0.0058
6 | BT20 BREAST | 1.12 ± 0.065 | 1.128 ± 0.0092 | 1.05 ± 0.048 | 1.12 ± 0.05 | 1.14 ± 0.048 | 1.18 ± 0.054 | 1.16 ± 0.045 | 1.38 ± 0.068 | 1.24 ± 0.16 | 1.14 ± 0.086 | 1.33 ± 0.072 | 1.28 ± 0.12 | 1.46 ± 0.037 | 1.33 ± 0.073 | 1.1 ± 0.075 | 0.844 ± 0.069
7 | BT549 BREAST | 1.1 ± 0.073 | 1.01 ± 0.081 | 0.971 ± 0.044 | 1.06 ± 0.043 | 1.07 ± 0.1 | 1.03 ± 0.054 | 1.15 ± 0.14 | 0.977 ± 0.085 | 1.16 ± 0.084 | 1.16 ± 0.23 | 0.976 ± 0.095 | 1.06 ± 0.042 | 0.721 ± 0.051 | 0.724 ± 0.045 | 0.537 ± 0.064 | 0.452 ± 0.058
8 | C33A CERVIX | 0.988 ± 0.07 | 1.03 ± 0.041 | 1.11 ± 0.036 | 1.02 ± 0.045 | 0.887 ± 0.037 | 0.859 ± 0.017 | 0.62 ± 0.014 | 0.537 ± 0.017 | 0.969 ± 0.043 | 0.941 ± 0.064 | 0.963 ± 0.045 | 1.06 ± 0.036 | 0.9227 ± 0.0078 | 0.909 ± 0.075 | 0.697 ± 0.1 | 0.685 ± 0.082
9 | CADOES1 SOFT TISSUE | 0.959 ± 0.045 | 1.06 ± 0.096 | 0.976 ± 0.12 | 0.996 ± 0.16 | 0.958 ± 0.096 | 1.09 ± 0.097 | 1.13 ± 0.052 | 1.13 ± 0.094 | 0.915 ± 0.1 | 0.962 ± 0.14 | 0.772 ± 0.11 | 0.951 ± 0.047 | 0.596 ± 0.096 | 0.448 ± 0.05 | 0.316 ± 0.061 | 0.278 ± 0.041
10 | CAL51 BREAST | 0.966 ± 0.078 | 1.08 ± 0.024 | 1.03 ± 0.055 | 1.02 ± 0.04 | 0.994 ± 0.042 | 1.08 ± 0.032 | 1.02 ± 0.089 | 0.989 ± 0.03 | 1.03 ± 0.028 | 0.98 ± 0.034 | 1 ± 0.041 | 0.952 ± 0.046 | 0.95 ± 0.12 | 0.865 ± 0.15 | 0.586 ± 0.077 | 0.481 ± 0.021

From the supplement of paper PMC6045584
